Molecular target: T1, PPARγ (Homo sapiens, UniProt P37231)
T1 sequence (P37231 1-505): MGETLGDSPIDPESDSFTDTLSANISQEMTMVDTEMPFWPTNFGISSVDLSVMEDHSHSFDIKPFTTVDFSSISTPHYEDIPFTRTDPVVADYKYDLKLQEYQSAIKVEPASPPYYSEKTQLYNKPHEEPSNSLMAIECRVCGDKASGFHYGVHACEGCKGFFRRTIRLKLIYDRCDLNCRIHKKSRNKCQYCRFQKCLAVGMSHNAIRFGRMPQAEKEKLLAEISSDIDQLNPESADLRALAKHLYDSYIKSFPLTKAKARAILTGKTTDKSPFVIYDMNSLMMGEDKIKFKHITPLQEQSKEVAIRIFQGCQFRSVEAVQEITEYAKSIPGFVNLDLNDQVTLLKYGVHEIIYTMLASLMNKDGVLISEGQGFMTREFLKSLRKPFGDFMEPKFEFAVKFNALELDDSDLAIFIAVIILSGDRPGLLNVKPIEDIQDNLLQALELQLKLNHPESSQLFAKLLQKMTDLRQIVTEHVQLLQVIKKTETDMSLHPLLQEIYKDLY
Test: IAA-competitive labelling of cysteines on PPARγ (LC-MS/MS)
Assay type: binding
Conditions: 100 µM, 1 h
Source text: Finally, we sought to understand the molecular basis for PPARγ binding by the synthetic analogues of deoxyelephantopin through identification of the precise covalently modified amino acid site. There is literature precedent for oxidized fatty acids containing an α,β-unsaturated ketone to form a covalent bond with a cysteine in the ligand-binding site of PPARγ[53]. More recently, synthetic ligands binding reversibly to a distinct site were identified. […] Bearing in mind that the structurally simplified, and thus less prone to MS/MS fragmentation, probe 23c binds PPARγ as efficiently as 24c (Supplementary Fig. 13), we treated the recombinant nuclear receptor with the former compound, digested the protein and analysed the resulting peptides by LC–MS/MS. […] While zinc fingers respond to oxidative stress through reaction at cysteines[55][56] and have been targeted by small molecules forming disulfide bridges, to the best of our knowledge, deoxyelephantopin is the first example of a small molecule that engages a zinc finger through a Michael addition. The success of Michael acceptors as a cysteine trap in current clinical development of covalent inhibitors points to the privileged reactivity profile of this moiety. Having identified the exact binding site, we then performed covalent docking of 19a using the protein–ligand docking program GOLD. […] Following the docking result, we mutated these two residues, transiently expressed the wild-type and the two PPARγ mutant forms in 293T cells and performed gel-based competitive experiments to determine relative binding affinities for 19a. […] Finally, it is interesting to note that SILAC experiment led to the identification of ZNF346, another zinc finger motif-containing protein. […]
H2O (Buffer A) and 0.1% FA in MeCN (Buffer B). Peptides were eluted into the mass spectrometer at a flow rate of 300 nL/min. over a 240 min. linear gradient (3-35% Buffer B) at 50 °C. Data was acquired in data-dependent mode (top- N = ’ […]
and isotope exclusion was enabled.
MaxQuant analysis. The MS data was analyzed with MaxQuant (V1.5.2.8) and searched against the human proteome (Uniprot, 89,649 entries) and a common list of contaminants (included in MaxQuant). The first peptide search tolerance was set to 20 ppm, 10 ppm was used for the main peptide search and fragment mass tolerance was set to 0.02 Da. The false discovery rate for peptides, proteins and sites identification was set to 1%. The minimum peptide length was set to 6 amino acids and peptide re-quantification, label-free quantification (MaxLFQ) and “ ” were enabled. The minimal number of peptides per protein was set to two. Oxidized methionines and N-terminal acetylation were searched as variable modifications and carbamidomethylation of cysteines was searched as a fixed modification. For SILAC experiments 13C6 L-lysine and 13C6 15N4 L-arginine were set as heavy isotope labels and 12C6 L-lysine and 12C6 14N4 L-arginine as light isotope labels. […]
IAA competition of 23c, 24c and DEP h ARγ. γ
(500 ng in 9 µL PBS) was treated with either 100 µM DEP, 23c, 24c or DMSO (1 µL of 10x stock in DMSO) for one hour. Samples were denatured with 6 M urea in 50 mM NH4HCO3, […]
in the dark. Samples were diluted to 2 M urea with 50 mM NH4HCO3, and digested with trypsin . μ . μ μ 2 for 12 hours at 37 °C. Samples were acidified to a final concentration of 5% acetic acid, desalted over a self-packed C18 spin column and dried. Samples were resuspended in 0.1% FA in water and analyzed by LC-MS/MS (see above). MS data was analyzed in MaxQuant (see above). […]

[1] = peptide NKCQYCR (contains Cys190)

Row | Structure (SMILES) | competition of iodoacetamide labelling of the Cys190-containing tryptic peptide [%] | Ratio compound/DMSO (IAA-labelled peptide) (peptide ASGFHYGVHACEGCK) | Ratio compound/DMSO (IAA-labelled peptide) (peptide CLAVGMSHNAIR) | Ratio compound/DMSO (IAA-labelled peptide) (peptide IFQGCQFR) | Ratio compound/DMSO (IAA-labelled peptide) (peptide LKLIYDRCDLNCR) | Ratio compound/DMSO (IAA-labelled peptide) [1] | Ratio compound/DMSO (IAA-labelled peptide) (peptide TQLYNKPHEEPSNSLMAIECR) | Ratio compound/DMSO (IAA-labelled peptide) (peptide VCGDKASGFHYGVHACEGCK)
1 | C#CCC[C@H](OC(=O)C(=C)C)[C@H]1C(=C)C(=O)O[C@@H]1c1ccccc1 [24c] | > 75 | 0.72 | 1.40 | 0.60 | 0.87 | 0.08 | 1.72 | 0.65
2 | C#CCC[C@H](O)[C@H]1C(=C)C(=O)O[C@@H]1c1ccccc1 [23c] | > 75 | 0.79 | 1.14 | 0.63 | 0.83 | 0.25 | 1.52 | 0.68
3 | C=C(C)C(=O)O[C@H]1CC2=C[C@@H](C/C(C)=C/[C@H]3OC(=O)C(=C)[C@H]13)OC2=O [deoxyelephantopin] | > 75 | 1.05 | 0.94 | 0.73 | 0.96 | 0.00 | 0.94 | 0.81
